Measured values taken from PMC5552782, “Crystal Structure of MpPR-1i, a SCP/TAPS protein from Moniliophthora perniciosa, the fungus that causes Witches’ Broom Disease of Cacao” (Scientific Reports, 2017).

Molecular target: T1, MpPR-1i (Moniliophthora perniciosa, UniProt H6U756)
T1 construct: gene PR-1i; signal peptide removed; cDNA from green broom stage; modified pET SUMO, E. coli SHuffle; His-SUMO tag cut with ULP-1; untagged; monomer
Test: radioligand binding, Q-sepharose capture, scintillation counting

T1 sequence (H6U756 entry or part of it): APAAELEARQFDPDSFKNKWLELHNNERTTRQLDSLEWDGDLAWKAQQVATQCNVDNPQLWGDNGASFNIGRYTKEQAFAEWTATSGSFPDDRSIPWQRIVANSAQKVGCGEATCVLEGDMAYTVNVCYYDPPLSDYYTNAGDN

CCCCCCCCCCCCCCCC(=O)O [palmitic acid]
Kd: 107 µM
